# According to article PMC3542062, “A phenyl-thiadiazolylidene-amine derivative ejects zinc from retroviral nucleocapsid zinc fingers and inactivates HIV virions” (Retrovirology, 2012):
# How the values were obtained:
# [1] = system: NL4.3/AMD3100R; experiment: microbe, parasite or virus in culture; type: cell-based, HIV-1; details: NL4.3/AMD3100R; EC50 for NL4.3 wild-type as 1
# [2] = system: SIV Mac251; experiment: MT-4/MTT-assay, protection against virus-induced cytopathic effect; type: cell-based; details: MT-4 cells, MTT, 5 days after infection
# [3] = system: HIV-2 ROD; experiment: Anti-HIV activity in CEM cells (cytopathogenicity); type: cell-based
# [4] = system: MT-4 cells; experiment: Cytotoxicity in mock-infected MT-4 cells (MTT); type: cell-based
# [5] = system: human T-lymphocyte (CEM) cells; experiment: Cytostatic activity, CEM cell proliferation; type: cell-based
# [6] = system: HIV-1 IIIB; experiment: MT-4/MTT-assay, protection against virus-induced cytopathic effect; type: cell-based; details: MT-4 cells, MTT, 5 days after infection
# [7] = system: HIV-2 ROD; experiment: as above; type: cell-based; details: MT-4 cells, MTT, 5 days after infection
# [8] = system: HIV-1 IIIB; experiment: Anti-HIV activity in CEM cells (cytopathogenicity); type: cell-based
# [9] = system: HIV-1 IIIB chronically-infected HuT-78 cells; experiment: Gag processing in virions from HIV-1 IIIB chronically-infected HuT-78 cells (western blot); type: cell-based; details: HuT-78/IIIB cells treated 43 hours; WDO-217 50, 25 μM; ritonavir 2.7 μM; SRR-SB3 75, 15 μM
# Procedure: Recently, it has been shown that this new mechanism involves acetylation of the NCp7 region of Gag, thereby blocking Gag processing.
# HIV-1 IIIB virions from persistently infected HuT-78 cells treated with different concentrations of compound were analysed by gel electrophoresis and immunoblotted with antibody against capsid.
# Chronically-infected HIV-1 IIIB HuT-78 cells (HuT-78/IIIB) were washed four times with PBS to remove all free virions before treatment and 2 × 10^5 cells were resuspended in 1 ml compound-containing medium for 43 hours at 37°C. Then, virions were prepared from clarified supernatants (10 min at 300 g) by centrifugation at 36670 g for 2 hours at 4°C. Protein from lysed virions were separated by SDS-PAGE on a NuPage® Novex 4-12% Bis-Tris gel (Invitrogen) and transferred on a hydrophobic polyvinylidene difluoride (PVDF) membrane (Amersham Hybond™-P). The blot was blocked overnight at 4°C by 5% dry milk powder in Western blot wash solution (WBWS; PBS + 0.5% Tween 20), washed three times for 5 minutes with WBWS and incubated with a mouse anti-HIV-1 p24 antibody (1:5000) from Abcam. The blot was then washed three times for 5 minutes with WBWS and incubated for 1 h with a goat anti-mouse IgG-HRP secondary antibody (1:2500) from Santa Cruz Biotechnology. […]
# [10] = system: HIV-2 ROD; experiment: Virucidal assay: virus pre-incubated with compound, diluted, titrated on MT-4 cells; details: virus incubated 1 h 37°C with 0.5%; no drug 5.4 × 10^6
# [11] = system: HIV-1 virus particles; experiment: Virion-associated genomic RNA of pre-treated virus (RT-qPCR, Northern blot); details: compound-cleared HIV-1 virus stock, RT-qPCR or Northern blot
# [12] = system: HIV-1 IIIB; experiment: Virucidal assay: virus pre-incubated with compound, diluted, titrated on MT-4 cells; details: virus incubated 1 h 37°C with 0.5%; no drug 1 × 10^6
# [13] = system: HIV-1 virus particles; experiment: Virion-associated p24 of pre-treated, compound-cleared virus (ELISA); details: compound-cleared HIV-1 virus stock
compound,measurement,setting,value
"c1cc(CN2CCCNCCNCCCNCC2)ccc1CN1CCCNCCNCCCNCC1 [AMD3100, reference compound]",Fold resistance of mutant strain towards the respective inhibitor,[1],(>100)
"Cc1cn([C@H]2C[C@H](N=[N+]=[N-])[C@@H](CO)O2)c(=O)[nH]c1=O [AZT, reference compound]",EC50,[2],16 ± 7 nM
same,EC50,[3],55 ± 20 nM
same,CC50,[4],> 35000 nM
same,CC50,[5],> 125000 nM
same,EC50,[6],7 ± 1 nM
same,EC50,[7],5 ± 0.8 nM
same,EC50,[8],58 ± 30 nM
"CC(C)c1nc(CN(C)C(=O)N[C@H](C(=O)N[C@@H](Cc2ccccc2)C[C@H](O)[C@H](Cc2ccccc2)NC(=O)OCc2cncs2)C(C)C)cs1 [ritonavir, reference compound]",accumulation of unprocessed Gag polyprotein in progeny virus,[9],did effectively increase
Triton X-100 [reference compound],CCID50/ml HIV-2 ROD,[10],0 CCID50/ml
same,viral genomic RNA content after treatment,[11],no p24 core protein nor viral genomic RNA could be detected
same,CCID50/ml HIV-1 IIIB,[12],0 CCID50/ml
same,virus-associated p24 core protein after treatment,[13],no p24 core protein nor viral genomic RNA could be detected
